{"source": "ChEMBL document CHEMBL1139636", "about": "“QSAR analysis of thiazole benzenesulfonamide substituted 3-pyridylethanolamines as beta3-adrenergic receptor agonist” (Bioorg Med Chem Lett, 2005)", "target": "Beta-3 adrenergic receptor (Homo sapiens, UniProt P13945)", "sequence (P13945 whole entry)": "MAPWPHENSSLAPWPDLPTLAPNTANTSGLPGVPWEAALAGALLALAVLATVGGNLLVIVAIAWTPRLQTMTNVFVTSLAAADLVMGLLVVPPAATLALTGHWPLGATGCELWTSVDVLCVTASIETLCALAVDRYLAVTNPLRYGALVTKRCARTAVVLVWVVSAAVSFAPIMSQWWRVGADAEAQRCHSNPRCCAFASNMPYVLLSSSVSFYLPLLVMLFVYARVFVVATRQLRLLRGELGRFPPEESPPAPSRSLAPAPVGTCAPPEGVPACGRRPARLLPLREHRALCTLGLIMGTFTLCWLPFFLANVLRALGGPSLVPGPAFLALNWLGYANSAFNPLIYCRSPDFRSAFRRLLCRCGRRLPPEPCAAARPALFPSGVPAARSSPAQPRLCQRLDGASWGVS", "test": "Effective concentration to stimulate cAMP production in chinese hamster ovary cells expressing cloned human beta-3-adrenergic receptor", "format": "functional, cell-based, Cricetulus griseus"}
{"smiles": "O=S(=O)(Nc1ccc(CCNC[C@H](O)c2ccccc2)cc1)c1ccc(Cc2nc(-c3ccc4ncccc4c3)cs2)cc1", "values": [{"measurement": "EC50", "result": 2.7, "unit": "nM"}]}
{"smiles": "CCCCCCCCc1csc(Cc2ccc(S(=O)(=O)Nc3ccc(CCNC[C@H](O)c4ccccc4)cc3)cc2)n1", "values": [{"measurement": "EC50", "result": 10, "unit": "nM"}]}
{"smiles": "O=S(=O)(Nc1ccc(CCNC[C@H](O)c2ccccc2)cc1)c1ccc(Cc2nc(CCc3ccccc3)cs2)cc1", "values": [{"measurement": "EC50", "result": 33, "unit": "nM"}]}
{"smiles": "O=S(=O)(Nc1ccc(CCNC[C@H](O)c2ccccc2)cc1)c1ccc(Cc2nc(CCC3CCCC3)cs2)cc1", "values": [{"measurement": "EC50", "result": 26, "unit": "nM"}]}
{"smiles": "O=S(=O)(Nc1ccc(CCNC[C@H](O)c2ccccc2)cc1)c1ccc(Cc2nc(-c3ccc(F)cc3)cs2)cc1", "values": [{"measurement": "EC50", "result": 9.5, "unit": "nM"}]}
{"smiles": "O=S(=O)(Nc1ccc(CCNC[C@H](O)c2ccccc2)cc1)c1ccc(Cc2nc(-c3cc4ccccc4o3)cs2)cc1", "values": [{"measurement": "EC50", "result": 5, "unit": "nM"}]}
{"smiles": "O=S(=O)(Nc1ccc(CCNC[C@H](O)c2ccccc2)cc1)c1ccc(Cc2nc(-c3ccc(F)c(F)c3)cs2)cc1", "values": [{"measurement": "EC50", "result": 7.1, "unit": "nM"}]}
{"smiles": "O=S(=O)(Nc1ccc(CCNC[C@H](O)c2ccccc2)cc1)c1ccc(Cc2nc(-c3c[nH]c4ccccc34)cs2)cc1", "values": [{"measurement": "EC50", "result": 9.1, "unit": "nM"}]}
{"smiles": "O=S(=O)(Nc1ccc(CCNC[C@H](O)c2ccccc2)cc1)c1ccc(Cc2nc(Cc3ccc(F)cc3)cs2)cc1", "values": [{"measurement": "EC50", "result": 6.2, "unit": "nM"}]}
{"smiles": "CC/C=C/CC/C=C/c1csc(Cc2ccc(S(=O)(=O)Nc3ccc(CCNC[C@H](O)c4ccccc4)cc3)cc2)n1", "values": [{"measurement": "EC50", "result": 51, "unit": "nM"}]}
{"smiles": "O=S(=O)(Nc1ccc(CCNC[C@H](O)c2ccccc2)cc1)c1ccc(Cc2nc(-c3cc4ccccc4s3)cs2)cc1", "values": [{"measurement": "EC50", "result": 5.8, "unit": "nM"}]}
{"smiles": "O=S(=O)(Nc1ccc(CCNC[C@H](O)c2ccccc2)cc1)c1ccc(Cc2nc(-c3cnc4ccccc4c3)cs2)cc1", "values": [{"measurement": "EC50", "result": 7.3, "unit": "nM"}]}
{"smiles": "O=S(=O)(Nc1ccc(CCNC[C@H](O)c2ccccc2)cc1)c1ccc(CCc2nc(Cc3ccc4ccccc4c3)cs2)cc1", "values": [{"measurement": "EC50", "result": 12, "unit": "nM"}]}
{"smiles": "O=S(=O)(Nc1ccc(CCNC[C@H](O)c2ccccc2)cc1)c1ccc(Cc2nc(-c3cccnc3)cs2)cc1", "values": [{"measurement": "EC50", "result": 40, "unit": "nM"}]}
{"smiles": "CCCCCCc1ccc(-c2csc(Cc3ccc(S(=O)(=O)Nc4ccc(CCNC[C@H](O)c5ccccc5)cc4)cc3)n2)cc1", "values": [{"measurement": "EC50", "result": 1.2, "unit": "nM"}]}
{"smiles": "CC(C)(C)c1ccc(-c2csc(Cc3ccc(S(=O)(=O)Nc4ccc(CCNC[C@H](O)c5ccccc5)cc4)cc3)n2)cc1", "values": [{"measurement": "EC50", "result": 2.4, "unit": "nM"}]}
{"smiles": "O=S(=O)(Nc1ccc(CCNC[C@H](O)c2ccccc2)cc1)c1ccc(Cc2nc(-c3ccc(O)cc3)cs2)cc1", "values": [{"measurement": "EC50", "result": 45, "unit": "nM"}]}
{"smiles": "CC(=O)NCCCCCc1csc(Cc2ccc(S(=O)(=O)Nc3ccc(CCNC[C@H](O)c4ccccc4)cc3)cc2)n1", "values": [{"measurement": "EC50", "result": 50, "unit": "nM"}]}
{"smiles": "O=S(=O)(Nc1ccc(CCNC[C@H](O)c2ccccc2)cc1)c1ccc(Cc2nc(-c3ccccn3)cs2)cc1", "values": [{"measurement": "EC50", "result": 22, "unit": "nM"}]}
{"smiles": "O=S(=O)(Nc1ccc(CCNC[C@H](O)c2ccccc2)cc1)c1ccc(Cc2nc(-c3ccc4ccccc4c3)cs2)cc1", "values": [{"measurement": "EC50", "result": 2, "unit": "nM"}]}
{"smiles": "CC(=O)Nc1ccc(-c2csc(Cc3ccc(S(=O)(=O)Nc4ccc(CCNC[C@H](O)c5ccccc5)cc4)cc3)n2)cc1", "values": [{"measurement": "EC50", "result": 45, "unit": "nM"}]}
{"smiles": "CCCCCCCCc1csc(CCc2ccc(S(=O)(=O)Nc3ccc(CCNC[C@H](O)c4ccccc4)cc3)cc2)n1", "values": [{"measurement": "EC50", "result": 9.8, "unit": "nM"}]}
{"smiles": "O=S(=O)(Nc1ccc(CCNC[C@H](O)c2ccccc2)cc1)c1ccc(Cc2nc(Cc3ccc4ccccc4c3)cs2)cc1", "values": [{"measurement": "EC50", "result": 33, "unit": "nM"}]}
